Measurements taken from the CheMixHub viscosity set.

Experiment: xn = mol fraction of the nth substance listed

CC(O)CO (stereo not given) + CC(C)=O
viscosity [mPa·s], 100 kPa
Conditions | x2 = 0.1 | x2 = 0.2 | x2 = 0.2998 | x2 = 0.3999 | x2 = 0.5004 | x2 = 0.5999 | x2 = 0.6999 | x2 = 0.8 | x2 = 0.9001
293.15 K | 29.94 | 14.46 | 7.145 | 3.875 | 2.363 | 1.532 | 0.934 | 0.601 | 0.4671
298.15 K | 22.95 | 11.54 | 5.918 | 3.303 | 2.066 | 1.356 | 0.8597 | 0.5688 | 0.4463
303.15 K | 17.9 | 9.34 | 4.965 | 2.882 | 1.821 | 1.201 | 0.7943 | 0.5379 | 0.4209
308.15 K | 14.19 | 7.662 | 4.208 | 2.55 | 1.614 | 1.103 | 0.7356 | 0.5208 | 0.3953
313.15 K | 11.41 | 6.362 | 3.602 | 2.189 | 1.44 | 0.9924 | 0.6822 | 0.4945 | 0.377
318.15 K | 9.297 | 5.341 | 3.109 | 1.971 | 1.298 | 0.8944 | 0.6317 | 0.4731 | 0.3691
323.15 K | 7.672 | 4.529 | 2.71 | 1.717 | 1.175 | 0.815 | 0.5813 | 0.4533 | 0.3477

ClC=C(Cl)Cl + CC(C)CCO
303.15 K, 101.3 kPa
Conditions | viscosity [mPa·s]
x1 = 0.0921 | 2.553
x1 = 0.2031 | 2.01
x1 = 0.2728 | 1.705
x1 = 0.4124 | 1.237
x1 = 0.5054 | 1.027
x1 = 0.6208 | 0.85
x1 = 0.7016 | 0.758
x1 = 0.814 | 0.666
x1 = 0.9047 | 0.597

CC(O)CO (stereo not given) + CC(C)CO
viscosity [mPa·s], 100 kPa
Conditions | x2 = 0.101 | x2 = 0.2 | x2 = 0.3 | x2 = 0.4 | x2 = 0.5 | x2 = 0.6 | x2 = 0.7 | x2 = 0.8 | x2 = 0.9
298.15 K | 29.95 | 22.5 | 16.76 | 12.73 | 9.74 | 7.778 | 6.056 | 4.843 | 3.968
303.15 K | 22.85 | 17.38 | 13.28 | 10.21 | 7.878 | 6.366 | 5.037 | 4.08 | 3.366
308.15 K | 17.8 | 13.79 | 10.5 | 8.284 | 6.476 | 5.284 | 4.197 | 3.45 | 2.869
313.15 K | 14.12 | 11.03 | 8.532 | 6.802 | 5.362 | 4.42 | 3.54 | 2.939 | 2.471
318.15 K | 11.32 | 8.884 | 6.942 | 5.599 | 4.486 | 3.744 | 3.013 | 2.533 | 2.129
323.15 K | 9.291 | 7.286 | 5.767 | 4.693 | 3.766 | 3.185 | 2.59 | 2.192 | 1.846

ClC=C(Cl)Cl + CC(C)CO
viscosity [mPa·s]
Conditions | 293.15 K | 303.15 K | 313.15 K
101.3 kPa, x1 = 0.1086 | – | 2.134 | –
101.3 kPa, x1 = 0.2127 | – | 1.627 | –
101.3 kPa, x1 = 0.3178 | – | 1.273 | –
101.3 kPa, x1 = 0.4018 | – | 1.075 | –
101.3 kPa, x1 = 0.5178 | – | 0.889 | –
101.3 kPa, x1 = 0.6042 | – | 0.795 | –
101.3 kPa, x1 = 0.7191 | – | 0.703 | –
101.3 kPa, x1 = 0.8127 | – | 0.644 | –
101.3 kPa, x1 = 0.9144 | – | 0.581 | –
101.33 kPa, x2 = 0.15 | 0.8993 | 0.7678 | 0.6502
101.33 kPa, x2 = 0.3 | 1.228 | 1.005 | 0.8284
101.33 kPa, x2 = 0.45 | 1.556 | 1.242 | 1.007
101.33 kPa, x2 = 0.6 | 1.884 | 1.478 | 1.185
101.33 kPa, x2 = 0.75 | 2.213 | 1.715 | 1.365
101.33 kPa, x2 = 0.9 | 2.541 | 1.952 | 1.542

NC1CCCCC1 + CC(C)CO
Conditions | viscosity [mPa·s]
293.15 K, 100 kPa, x2 = 0.1205 | 2.575
298.15 K, 101 kPa, x1 = 0.0767 | 3.274
298.15 K, 101 kPa, x1 = 0.1574 | 3.183
298.15 K, 101 kPa, x1 = 0.3325 | 3.067
298.15 K, 101 kPa, x1 = 0.4277 | 2.976
298.15 K, 101 kPa, x1 = 0.5285 | 2.859
298.15 K, 101 kPa, x1 = 0.6355 | 2.681
298.15 K, 101 kPa, x1 = 0.7493 | 2.447
298.15 K, 101 kPa, x1 = 0.8706 | 2.165
308.15 K, 100 kPa, x2 = 0.6492 | 2.275

ClC=C(Cl)Cl + CC(C)O
viscosity [mPa·s]
Conditions | 293.15 K | 303.15 K | 313.15 K
101.3 kPa, x1 = 0.1036 | – | 1.363 | –
101.3 kPa, x1 = 0.2204 | – | 1.053 | –
101.3 kPa, x1 = 0.3432 | – | 0.849 | –
101.3 kPa, x1 = 0.4172 | – | 0.765 | –
101.3 kPa, x1 = 0.5133 | – | 0.686 | –
101.3 kPa, x1 = 0.6024 | – | 0.641 | –
101.3 kPa, x1 = 0.7196 | – | 0.603 | –
101.3 kPa, x1 = 0.8017 | – | 0.583 | –
101.3 kPa, x1 = 0.9028 | – | 0.556 | –
101.33 kPa, x2 = 0.15 | 0.7418 | 0.6628 | 0.5527
101.33 kPa, x2 = 0.3 | 0.9127 | 0.7947 | 0.6334
101.33 kPa, x2 = 0.45 | 1.083 | 0.9265 | 0.7141
101.33 kPa, x2 = 0.6 | 1.257 | 1.058 | 0.7948
101.33 kPa, x2 = 0.75 | 1.428 | 1.19 | 0.8775
101.33 kPa, x2 = 0.9 | 1.596 | 1.322 | 0.9562

CCCCCCCCCCCCCCO + CC(C)[C@@H]1CC[C@@H](C)C[C@H]1O
100 kPa, x1 = 0.333
Conditions | viscosity [mPa·s]
293.15 K | 44.69
298.15 K | 31.86
303.15 K | 23.35
308.15 K | 17.54
313.15 K | 13.47
318.15 K | 10.53
323.15 K | 8.38

ClC=C(Cl)Cl + CCC(C)(C)O
298.15 K, 101 kPa
Conditions | viscosity [mPa·s]
x2 = 0.0494 | 0.556
x2 = 0.101 | 0.576
x2 = 0.1994 | 0.626
x2 = 0.2988 | 0.69
x2 = 0.3984 | 0.779
x2 = 0.4991 | 0.909
x2 = 0.5974 | 1.08
x2 = 0.7 | 1.353
x2 = 0.7976 | 1.723
x2 = 0.9001 | 2.365

NC1CCCCC1 + CCC(C)=O
298.15 K, 101 kPa
Conditions | viscosity [mPa·s]
x1 = 0.0747 | 0.5316
x1 = 0.1538 | 0.6621
x1 = 0.2376 | 0.8418
x1 = 0.3265 | 1.042
x1 = 0.421 | 1.235
x1 = 0.5217 | 1.449
x1 = 0.6291 | 1.625
x1 = 0.7441 | 1.781
x1 = 0.8674 | 1.823
x2 = 0.1326 | 1.574
x2 = 0.2559 | 1.409
x2 = 0.3708 | 1.257
x2 = 0.4783 | 1.115
x2 = 0.579 | 0.978
x2 = 0.6735 | 0.846
x2 = 0.7624 | 0.719
x2 = 0.8462 | 0.599
x2 = 0.9252 | 0.481
